Results published in the METLIN SMRT retention time set (Domingo-Almenara et al. 2019).

Test: gradient 5% acetonitrile 3 min, to 50% in 2 min, to 85% in 15 min, held 3 min, 100 µL/min
Conditions: column: Zorbax Extend-C18 2.1 x 50 mm; eluents: water / acetonitrile, 0.1% formic acid
Method in brief: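 Standards, all pure, were combined into mixtures of ~100 molecules and run at 100 μL/min on a Zorbax Extend-C18 column (2.1 × 50 mm, 1.8 μm) with water and acetonitrile, each containing 0.1% formic acid. A coupled quadrupole time-of-flight mass spectrometer operated in positive and negative ionization mode. Retention time values come from computationally picked adduct peaks, each inspected manually.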

First: O=S(=O)(Nc1ccc(-c2ccc(N3CCCC3)nn2)cc1)c1ccc(Cl)s1
Second: Cc1ccc(S(=O)(=O)N2CCCC2)cc1-c1nnc(-c2ccccc2Cl)o1
The RP-LC retention time of the first is lower: 594 s for the first, 1070 s for the second.

Compared with `Cc1sc(C)c(S(=O)(=O)N2CCC3(CC2)OCCO3)c1-c1cc(C(F)(F)F)on1`, `Cc1cc(C)c(S(=O)(=O)N2CCCCC2)c(C)c1[N+](=O)[O-]` is lower in RP-LC retention time: 1110 s for the first, 1040 s for the second.

Going from `Cc1nc2nc(-c3ccc(C(C)(C)C)cc3)nn2c(C)c1CC(=O)N1CCCCC1` to `Cn1ncc2c(N3CCCCC3)nc(C(=O)N3CCN(c4ccc(F)cc4)CC3)nc21`, the RP-LC retention time falls from 1040 s to 894 s.

First: COc1ccc(OC)c(NC(=O)C(=O)NCC2CCCO2)c1 (centres undefined)
Second: COc1ccc(OC)c(NC(=O)CN2CCc3[nH]c4c(C)c(C)ccc4c(=O)c3C2)c1
The RP-LC retention time of the first is higher: 807 s for the first, 642 s for the second.

Compared with `CCOC(=O)c1c(S(=O)(=O)N2CCC(C(=O)Nc3ccccn3)CC2)c(C)n(C)c1C`, `CCc1ccccc1NC(=O)C1CCN(S(=O)(=O)c2ccc3c(c2)NC(=O)C(C)O3)CC1` (centres undefined) is higher in RP-LC retention time: 678 s for the first, 838 s for the second.

Going from `O=C1CC(c2noc(-c3ccc(Cl)cc3)n2)CN1c1ccc(F)cc1` (centres undefined) to `COc1ccc(C2Cn3nnc(-c4nc(-c5ccc(OC)c(F)c5)no4)c3CO2)cc1` (centres undefined), the RP-LC retention time rises from 1030 s to 1040 s.

Compared with `O=C1CCN(C(=O)[C@@H]2CCCN2C(=O)C2CCCCC2)CCCCCCN1`, `O=C(Cn1c(CN2CCCCC2)nc2ccccc21)N1CCOCC1` is lower in RP-LC retention time: 743 s for the first, 583 s for the second.

Going from `CC(C(=O)NCC1CCCO1)N1C(=O)C2CCCCN2C(=O)c2ccccc21` (centres undefined) to `CC1(C(=O)NC2CCCCC2)CN(S(=O)(=O)c2ccccc2)CC(=O)N1c1cccc(F)c1` (centres undefined), the RP-LC retention time rises from 664 s to 940 s.

Compared with `COc1ccccc1OCCNS(=O)(=O)c1cc2n(c1)CCCNC2=O`, `COCCOCc1nc(C2CCN(S(=O)(=O)c3cc(F)ccc3F)C2)no1` (centres undefined) is higher in RP-LC retention time: 654 s for the first, 817 s for the second.

First: CCc1noc(-c2ccc(SCC(=O)N3CCC(C(N)=O)CC3)nc2)n1
Second: CCc1nc(-c2ccnc(N3CCOCC3)c2)no1
The RP-LC retention time of the first is lower: 639 s for the first, 678 s for the second.

Going from `CCc1nnc(-c2ccc(S(=O)(=O)N3CCN(CC(C)C)CC3)o2)o1` to `Cc1ccc(NC(=O)Cn2c(C)cc(-c3nnc(C4CCC4)o3)c2C)cc1C`, the RP-LC retention time rises from 612 s to 902 s.

Going from `O=C(NCc1ccc(C(F)(F)F)cc1)c1cn2ccccc2n1` to `CCc1nn2c(CNC(=O)c3ccc(Br)cc3)c(-c3ccccc3)nc2s1`, the RP-LC retention time rises from 746 s to 1010 s.

First: CS(=O)(=O)N(C1CCOCC1)C1CN(C(=O)Nc2ccc(F)cc2F)C1
Second: O=C(NCc1cccs1)C1CCN(S(=O)(=O)c2cc(-c3noc(C4CC4)n3)cs2)CC1
The RP-LC retention time of the first is lower: 664 s for the first, 910 s for the second.

Compared with `COc1ccc(N2CC(c3nc(-c4ccc(OC)c(OC)c4)no3)CC2=O)c(OC)c1` (centres undefined), `COc1ccc(OC)c(NC(=O)Cn2nc3cc(-c4ccccc4)nc(C)n3c2=O)c1` is higher in RP-LC retention time: 743 s for the first, 965 s for the second.

Going from `COCCCN(CC(=O)N1CCc2sccc2C1COc1ccccc1)C(=O)C(C)C` (centres undefined) to `CCCCN(C)C(=O)c1ccc2c(c1)Sc1ncccc1C(=O)N2C(C)C`, the RP-LC retention time falls from 892 s to 804 s.

Compared with `COc1cc(NC(=O)Nc2nc(-c3nc4ccccc4s3)cs2)cc(OC)c1OC`, `COc1ccccc1Cc1noc(C2CN(C(=O)c3ccccc3C(F)(F)F)C2)n1` is higher in RP-LC retention time: 863 s for the first, 873 s for the second.

First: O=c1c(Br)c(-c2ccccc2)[nH]c2ccccc12
Second: CCOC(=O)CSc1nc2c(sc3ccccc32)c(=O)n1CCc1c[nH]c2ccccc12
The RP-LC retention time of the first is lower: 715 s for the first, 1220 s for the second.

Compared with `O=C(NCc1cc(F)cc(F)c1)c1ccc(-c2cccs2)nc1`, `Cn1nc(C(=O)Nc2ccc(F)cc2)c2c1-c1cc(Cl)ccc1SC2` is higher in RP-LC retention time: 925 s for the first, 1280 s for the second.

First: CCN1CCC(CCNC(=O)c2cc3c(s2)N(CC)CCCC3)CC1
Second: Cc1nn(C)c(C)c1CNC(=O)C1CCN(c2cnn(Cc3ccccc3)c(=O)c2)CC1
The RP-LC retention time of the first is higher: 685 s for the first, 654 s for the second.

First: Oc1cccc(-c2nc3cnc(Br)cn3c2Nc2ccc3c(c2)OCO3)c1
Second: COc1ccc(-c2ccc(CNc3ncn[nH]3)o2)cc1Cl
The RP-LC retention time of the first is higher: 786 s for the first, 673 s for the second.

Going from `Cc1ccc(-c2noc(-c3nc(-c4ccncc4)no3)n2)cc1` to `CC1CCN(c2ccc(-c3noc(CN4CCN(c5ccccn5)CC4)n3)cn2)CC1`, the RP-LC retention time falls from 1090 s to 570 s.

Compared with `O=C(NCCNC(=O)[C@@H]1CCCN1C(=O)c1ccc(F)cc1)c1ccc(F)cc1`, `c1ccc(Cn2c(-c3ccc(OC[C@H](C4CCNCC4)n4c(-c5ccccc5)nc5ccccc54)cc3)nc3ccccc32)cc1` is higher in RP-LC retention time: 656 s for the first, 692 s for the second.
